Values of other authors as cited in patent publication US10786520B2, “Aminoglycoside derivatives and uses thereof in treating genetic disorders” (Eloxx Pharmaceuticals Ltd., priority 2015, dated 2020).

System: human fibroblast cells

SMILES: CN[C@@H]1[C@@H](O)[C@@H](O[C@@H]2[C@@H](O)[C@H](O[C@H]3O[C@H]([C@@H](C)O)[C@@H](O)[C@H](O)[C@H]3N)[C@@H](N)C[C@H]2N)OC[C@]1(C)O [Compound G-418, G-418]
- LD50 against human fibroblast cells: 0.04 mg/mL
